Assays:
[1] = Cytotoxicity against monkey GMK cells at 50 ug/mL after 24 hrs by MTT assay; assay type: functional, Chlorocebus aethiops
[2] = Cytotoxicity against monkey GMK cells at 10 ug/mL after 24 hrs by MTT assay; assay type: functional, Chlorocebus aethiops
Staphylococcus aureus = assay: Antibacterial activity against Staphylococcus aureus ATCC 25923 at 100 mg/mL after 24 hrs by disc diffusion method; assay type: functional
[3] = test system: Staphylococcus epidermidis; assay: Antibacterial activity against Staphylococcus epidermidis at 100 mg/mL after 24 hrs by disc diffusion method; assay type: functional
Streptococcus pyogenes = assay: Antibacterial activity against Streptococcus pyogenes at 100 mg/mL after 24 hrs by disc diffusion method; assay type: functional
Escherichia coli = assay: Antibacterial activity against Escherichia coli ATCC 25922 at 100 mg/mL after 24 hrs by disc diffusion method; assay type: functional
[4] = Cytotoxicity against monkey GMK cells at 5 ug/mL after 24 hrs by MTT assay; assay type: functional, Chlorocebus aethiops
[5] = Cytotoxicity against monkey GMK cells at 25 ug/mL after 24 hrs by MTT assay; assay type: functional, Chlorocebus aethiops
[6] = Cytotoxicity against monkey GMK cells at 25 ug/mL after 48 hrs by MTT assay; assay type: functional, Chlorocebus aethiops
[7] = Cytotoxicity against monkey GMK cells at 100 ug/mL after 48 hrs by MTT assay; assay type: functional, Chlorocebus aethiops
[8] = Cytotoxicity against monkey GMK cells at 10 ug/mL after 96 hrs by MTT assay; assay type: functional, Chlorocebus aethiops
[9] = Cytotoxicity against monkey GMK cells at 5 ug/mL after 120 hrs by MTT assay; assay type: functional, Chlorocebus aethiops
[10] = Cytotoxicity against monkey GMK cells at 25 ug/mL after 120 hrs by MTT assay; assay type: functional, Chlorocebus aethiops
[11] = Cytotoxicity against monkey GMK cells at 100 ug/mL after 120 hrs by MTT assay; assay type: functional, Chlorocebus aethiops
HEK293 [12] = assay: Cytotoxicity against human HEK293 cells at 2.5 ug/mL after 24 hrs by MTT assay; assay type: functional
HEK293 [13] = assay: Cytotoxicity against human HEK293 cells at 100 ug/mL after 24 hrs by MTT assay; assay type: functional
HEK293 [14] = assay: Cytotoxicity against human HEK293 cells at 2.5 ug/mL after 48 hrs by MTT assay; assay type: functional
HEK293 [15] = assay: Cytotoxicity against human HEK293 cells at 25 ug/mL after 96 hrs by MTT assay; assay type: functional
HEK293 [16] = assay: Cytotoxicity against human HEK293 cells at 200 ug/mL after 96 hrs by MTT assay; assay type: functional
HEK293 [17] = assay: Cytotoxicity against human HEK293 cells at 2.5 ug/mL after 120 hrs by MTT assay; assay type: functional
HEK293 [18] = assay: Cytotoxicity against human HEK293 cells at 10 ug/mL after 120 hrs by MTT assay; assay type: functional
HEK293 [19] = assay: Cytotoxicity against human HEK293 cells at 50 ug/mL after 120 hrs by MTT assay; assay type: functional
HEK293 [20] = assay: Cytotoxicity against human HEK293 cells at 100 ug/mL after 120 hrs by MTT assay; assay type: functional
Human adenovirus 5 [21] = assay: Antiviral activity against Human adenovirus 5 in HEK293 cells assessed as inhibition of virus titre at 200 ug/mL after 24 hrs by CPE method; assay type: functional; conditions: Human mastadenovirus C, HEK293, 24 h
Echovirus E9 [22] = assay: Antiviral activity against Human echovirus 9 in GMK cells assessed as inhibition of virus titre at 100 ug/mL after 24 hrs by CPE method; assay type: functional; conditions: Enterovirus B
Human adenovirus 5 [23] = assay: Antiviral activity against Human adenovirus 5 in HEK293 cells assessed as inhibition of virus titre at 50 ug/mL after 24 hrs by CPE method; assay type: functional; conditions: Human mastadenovirus C, HEK293, 24 h
Human adenovirus 5 [24] = assay: Antiviral activity against Human adenovirus 5 in HEK293 cells assessed as inhibition of virus titre at 100 ug/mL after 24 hrs by CPE method; assay type: functional; conditions: Human mastadenovirus C, HEK293, 24 h
Echovirus E9 [25] = assay: Antiviral activity against Human echovirus 9 in GMK cells assessed as inhibition of virus titre at 50 ug/mL after 24 hrs by CPE method; assay type: functional; conditions: Enterovirus B
Echovirus E9 [26] = assay: Antiviral activity against Human echovirus 9 in GMK cells assessed as inhibition of virus titre at 200 ug/mL after 24 hrs by CPE method; assay type: functional; conditions: Enterovirus B

| SMILES | Activity [1] [%] | Activity [2] [%] | Inhibition (Staphylococcus aureus) [mm] | Activity [4] [%] | Activity [5] [%] | Activity [6] [%] | Activity [7] [%] | Activity [8] [%] | Activity [9] [%] | Activity [10] [%] | Activity [11] [%] | Activity (HEK293 [12]) [%] | Activity (HEK293 [13]) [%] | Activity (HEK293 [14]) [%] | Activity (HEK293 [15]) [%] | Activity (HEK293 [16]) [%] | Activity (HEK293 [17]) [%] | Activity (HEK293 [18]) [%] | Activity (HEK293 [19]) [%] | Activity (HEK293 [20]) [%] | other results |
| --- | --- | --- | --- | --- | --- | --- | --- | --- | --- | --- | --- | --- | --- | --- | --- | --- | --- | --- | --- | --- | --- |
| COC(=O)CC1NN=C2N(CCN2c2cccc(Cl)c2)C1=O (configuration not stated) | 100 | 100 | 16 | 100 | 100 | 100 | 50 | 100 | 100 | 95 | 0 | 100 | 98 | 100 | 95 | 35 | 100 | 100 | 90 | 50 | Inhibition [3]: 16 mm; Inhibition (Streptococcus pyogenes): 10 mm; Inhibition (Escherichia coli): >20 mm; inhibition at 200 µg/mL (Human adenovirus 5 [21]): 8%; inhibition at 100 µg/mL (Echovirus E9 [22]): 9.9% |
| CCOC(=O)CC1NN=C2N(CCN2c2ccc(C)cc2)C1=O (configuration not stated) | 90 | 100 |  | 100 | 100 | 90 | 80 | 95 | 100 | 70 | 70 | 100 | 70 | 100 | 95 | 15 | 100 | 100 | 75 | 70 | inhibition at 50 µg/mL (Human adenovirus 5 [23]): 23%; inhibition at 100 µg/mL (Human adenovirus 5 [24]): 23%; inhibition at 200 µg/mL (Human adenovirus 5 [21]): 23% |
| CCOC(=O)CC1NN=C2N(CCN2c2ccc(Cl)cc2)C1=O (configuration not stated) | 100 | 100 | <9 | 100 | 100 | 100 | 100 | 100 | 100 | 100 | 100 | 100 | 95 | 100 | 100 | 25 | 100 | 100 | 100 | 50 | Inhibition [3]: 16 mm; Inhibition (Streptococcus pyogenes): >20 mm; Inhibition (Escherichia coli): 10 mm; inhibition at 50 µg/mL (Echovirus E9 [25]): 9.4%; inhibition at 200 µg/mL (Echovirus E9 [26]): 25% |

Reference: ChEMBL document CHEMBL1149623, “Identification of antibacterial and antiviral activities of novel fused 1,2,4-triazine esters” (2007)
